# Experimental data from US20210009542A1 (Calico Life Sciences LLC, priority 2018, published 2021).
# Read-outs that look alike come from different tables or passages of the source.
# Experiments:
# [1] = system: B16F10 mouse melanoma cells; assay: B16F10 IFNγ-induced cellular growth inhibition assay; format: cell-based; conditions: Mus musculus, B16-F10, 33 μM compound
# Outline: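 Live-cell imaging of confluence every 6 h over 5 days at 37 °C tracked growth of mouse B16F10 melanoma cells seeded overnight at 500/well. Semi-log compound series (final 100–0.001 μM, 0.1% DMSO) ran in both arms, ±IFNγ at 0.5 ng/mL final; inhibition taken relative to DMSO plus IFNγ when IFNγ-free DMSO wells passed 95% confluence.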
# [2] = biological target: T1, His tagged PTPN2 (TC45) protein (Homo sapiens, UniProt P17706); assay: Mobility shift assay (MSA) for potency of PTPN2 inhibitors; format: biochemical; conditions: read-out: PTPN2 MSA IC50
# T1 construct: made in house
# T1 sequence (P17706 with tags, fused parts or gaps isoform P17706-2): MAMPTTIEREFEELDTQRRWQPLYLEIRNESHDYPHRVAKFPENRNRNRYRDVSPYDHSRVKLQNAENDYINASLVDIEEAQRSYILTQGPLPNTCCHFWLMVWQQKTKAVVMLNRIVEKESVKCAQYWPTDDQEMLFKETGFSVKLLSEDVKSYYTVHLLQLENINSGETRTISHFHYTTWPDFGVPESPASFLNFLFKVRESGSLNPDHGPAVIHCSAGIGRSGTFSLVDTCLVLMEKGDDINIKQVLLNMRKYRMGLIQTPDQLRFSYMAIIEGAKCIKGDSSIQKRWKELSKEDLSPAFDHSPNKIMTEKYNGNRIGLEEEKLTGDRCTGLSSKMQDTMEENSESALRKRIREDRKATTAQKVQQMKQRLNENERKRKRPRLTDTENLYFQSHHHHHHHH
# Outline: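 IC50 values were derived from % inhibition of substrate conversion, measured by microfluidic mobility shift (ex 488/em 530) after quenching. The fluorescent phosphotyrosine insulin-receptor peptide ([…]) reacted for 10 min at room temperature with 0.5 nM His-tagged TC45 PTPN2 that had been preincubated 10 min with compound (12 points, 1:3). Buffer was HEPES pH 7.5 with EGTA, EDTA, Tween 20 and DTT.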
# [3] = biological target: T2, His tagged full-length PTP1B protein (Homo sapiens, UniProt P18031); assay: Mobility shift assay (MSA) for potency of PTP1B inhibitors; format: biochemical
# T2 construct: made in house
# T2 sequence (P18031 with tags, fused parts or gaps): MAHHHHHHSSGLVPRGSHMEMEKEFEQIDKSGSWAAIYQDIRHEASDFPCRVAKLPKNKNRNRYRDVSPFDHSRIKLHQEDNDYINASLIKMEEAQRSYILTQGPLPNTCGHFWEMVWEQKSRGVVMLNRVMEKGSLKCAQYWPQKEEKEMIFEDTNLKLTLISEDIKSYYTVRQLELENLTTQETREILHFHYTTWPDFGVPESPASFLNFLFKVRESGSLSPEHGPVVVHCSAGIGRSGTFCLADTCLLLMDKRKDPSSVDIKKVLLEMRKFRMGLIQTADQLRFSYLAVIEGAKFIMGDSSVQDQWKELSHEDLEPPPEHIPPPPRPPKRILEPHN
# Experimental: The enzymatic assay used to determine activity is a mobility shift assay using a LabChip EZ Reader by Caliper Life Sciences. The enzymatic reaction was carried out in assay buffer (50 mM HEPES pH 7.5, 1 mM EGTA, 10 mM EDTA, 0.01% Tween® 20, and 2 mM DTT). […] The enzyme (at 0.5 nM) was incubated with compound for 10 minutes at room temperature. […] The % inhibition was then used to calculate the IC50 values.
# [4] = +0.5 ng/mL IFNγ, relative to DMSO control, read-out: % B16F10 growth inhibition (+0.5 ng/mL IFNγ) @ 33 μM
# [5] = no IFNγ, read-out: % B16F10 growth inhibition (no IFNγ) @ 33 μM
IC50 [3],SMILES,"inhibition at 33 µM [1, 4]","inhibition at 33 µM [1, 5]",IC50 [2]
1 to 10 nM,"O=C1CN(c2c(O)cc3ccc(CC4CCN(S(=O)(=O)C5CC5)C4)cc3c2F)S(=O)(=O)N1 (stereo not shown) [Compound 261, 5-(7-{[1-(cyclopropanesulfonyl)pyrrolidin-3-yl]methyl}-1-fluoro-3-hydroxynaphthalen-2-yl)-1λ^6,2,5-thiadiazolidine-1,1,3-trione]",25 to 59%,< 25%,1 to 10 nM
1 to 10 nM,"CS(=O)(=O)N1CCC(F)(COc2ccc3cc(O)c(N4CC(=O)NS4(=O)=O)c(F)c3c2)C1 (stereo not shown) [Compound 307, 5-(1-fluoro-7-{[3-fluoro-1-(methanesulfonyl)pyrrolidin-3-yl]methoxy}-3-hydroxynaphthalen-2-yl)-1λ^6,2,5-thiadiazolidine-1,1,3-trione]",25 to 59%,< 25%,1 to 10 nM
1 to 10 nM,"O=C1CN(c2c(O)cc3ccc(OCC(O)C4CC4)cc3c2F)S(=O)(=O)N1 (stereo not shown) [Compound 150, 5-[7-(2-cyclopropyl-2-hydroxyethoxy)-1-fluoro-3-hydroxynaphthalen-2-yl]-1λ^6,2,5-thiadiazolidine-1,1,3-trione]",> 90%,< 25%,1 to 10 nM

# More lines, now with the values behind:
SMILES,IC50 [3],"inhibition at 33 µM [1, 4]","inhibition at 33 µM [1, 5]",IC50 [2]
"O=C1CN(c2c(O)cc3ccc(C4CCNC4)cc3c2F)S(=O)(=O)N1 (stereo not shown) [Compound 102, 5-[1-fluoro-3-hydroxy-7-(pyrrolidin-3-yl)naphthalen-2-yl]-1λ^6,2,5-thiadiazolidine-1,1,3-trione]",10 to 100 nM,60 to 90%,< 25%,1 to 10 nM
"CC(O)CCOc1ccc2cc(O)c(N3CC(=O)NS3(=O)=O)c(F)c2c1 (stereo not shown) [Compound 156, 5-[1-fluoro-3-hydroxy-7-(3-hydroxybutoxy)naphthalen-2-yl]-1λ^6,2,5-thiadiazolidine-1,1,3-trione]",1 to 10 nM,60 to 90%,< 25%,< 1 nM
"NC12CC(CCOc3ccc4cc(O)c(N5CC(=O)NS5(=O)=O)c(F)c4c3)(C1)C2 [Compound 121, 5-{7-[2-(3-aminobicyclo[1.1.1]pentan-1-yl)ethoxy]-1-fluoro-3-hydroxynaphthalen-2-yl}-1λ^6,2,5-thiadiazolidine-1,1,3-trione]",1 to 10 nM,60 to 90%,< 25%,1 to 10 nM
"CS(=O)(=O)N1CCC(Nc2ccc3cc(O)c(N4CC(=O)NS4(=O)=O)c(F)c3c2)C1 (stereo not shown) [Compound 126, 5-(1-fluoro-3-hydroxy-7-{[1-(methanesulfonyl)pyrrolidin-3-yl]amino}naphthalen-2-yl)-1λ^6,2,5-thiadiazolidine-1,1,3-trione]",1 to 10 nM,60 to 90%,< 25%,1 to 10 nM
"O=C1CN(c2c(O)cc3ccc(C4CCN(S(=O)(=O)C5CC5)C4)cc3c2F)S(=O)(=O)N1 (stereo not shown) [Compound 101, 5-{7-[1-(cyclopropanesulfonyl)pyrrolidin-3-yl]-1-fluoro-3-hydroxynaphthalen-2-yl}-1λ^6,2,5-thiadiazolidine-1,1,3-trione]",1 to 10 nM,60 to 90%,< 25%,< 1 nM
"CC(C)N1CCC(F)(COc2ccc3cc(O)c(N4CC(=O)NS4(=O)=O)c(F)c3c2)C1 (stereo not shown) [Compound 109, 5-(1-fluoro-7-{[3-fluoro-1-(propan-2-yl)pyrrolidin-3-yl]methoxy}-3-hydroxynaphthalen-2-yl)-1λ^6,2,5-thiadiazolidine-1,1,3-trione]",10 to 100 nM,< 25%,< 25%,1 to 10 nM
"O=C1CN(c2c(O)cc3ccc(OCC4(F)CCNC4)cc3c2F)S(=O)(=O)N1 (stereo not shown) [Compound 110, 5-{1-fluoro-7-[(3-fluoropyrrolidin-3-yl)methoxy]-3-hydroxynaphthalen-2-yl}-1λ^6,2,5-thiadiazolidine-1,1,3-trione]",10 to 100 nM,60 to 90%,< 25%,1 to 10 nM
